Calls of active or inactive are those of the source. No rule for the calls is given here.
System: CCRIS mutagenicity, Ames/micronucleus/aberration tests
Assay: CCRIS mutagenicity studies
Details: Test System: AMES SALMONELLA TYPHIMURIUM
[1] = Strain/Indicator: TA97, Metabolic Activation: NONE, Method: PREINCUBATION
[2] = Strain/Indicator: TA98, Metabolic Activation: HAMSTER, LIVER, S-9, AROCLOR 1254 (10%), Method: PREINCUBATION
[3] = Strain/Indicator: TA98, Metabolic Activation: HAMSTER, LIVER, S-9, AROCLOR 1254 (30%), Method: PREINCUBATION
[4] = Strain/Indicator: TA98, Metabolic Activation: NONE, Method: PREINCUBATION
[5] = Strain/Indicator: TA98, Metabolic Activation: NONE, Method: STANDARD PLATE
[6] = Strain/Indicator: TA98, Metabolic Activation: RAT, LIVER, S-9, AROCLOR 1254, Method: STANDARD PLATE
[7] = Strain/Indicator: TA100, Metabolic Activation: HAMSTER, LIVER, S-9, AROCLOR 1254 (10%), Method: PREINCUBATION
[8] = Strain/Indicator: TA100, Metabolic Activation: HAMSTER, LIVER, S-9, AROCLOR 1254 (30%), Method: PREINCUBATION
[9] = Strain/Indicator: TA100, Metabolic Activation: NONE, Method: PREINCUBATION
[10] = Strain/Indicator: TA100, Metabolic Activation: NONE, Method: STANDARD PLATE
[11] = Strain/Indicator: TA100, Metabolic Activation: RAT, LIVER, S-9, AROCLOR 1254, Method: STANDARD PLATE
[12] = Strain/Indicator: TA1535, Metabolic Activation: HAMSTER, LIVER, S-9, AROCLOR 1254 (10%), Method: PREINCUBATION
[13] = Strain/Indicator: TA1535, Metabolic Activation: NONE, Method: PREINCUBATION
[14] = Strain/Indicator: TA1535, Metabolic Activation: NONE, Method: STANDARD PLATE
[15] = Strain/Indicator: TA1535, Metabolic Activation: RAT, LIVER, S-9, AROCLOR 1254 (10%), Method: PREINCUBATION
[16] = Strain/Indicator: TA1535, Metabolic Activation: RAT, LIVER, S-9, AROCLOR 1254, Method: STANDARD PLATE
[17] = Strain/Indicator: TA1537, Metabolic Activation: NONE, Method: STANDARD PLATE
[18] = Strain/Indicator: TA1537, Metabolic Activation: RAT, LIVER, S-9, AROCLOR 1254, Method: STANDARD PLATE
[19] = Strain/Indicator: TA1538, Metabolic Activation: NONE, Method: STANDARD PLATE
[20] = Strain/Indicator: TA1538, Metabolic Activation: RAT, LIVER, S-9, AROCLOR 1254, Method: STANDARD PLATE

FC(F)(F)c1cccc(Cl)c1
mutagenic call (Strain/Indicator: TA97, Metabolic Activation: HAMSTER, LIVER, S-9, AROCLOR 1254 (10%), Method: PREINCUBATION): inactive; negative
mutagenic call (Strain/Indicator: TA97, Metabolic Activation: HAMSTER, LIVER, S-9, AROCLOR 1254 (30%), Method: PREINCUBATION): inactive; negative
mutagenic call [1]: inactive; negative
mutagenic call (Strain/Indicator: TA97, Metabolic Activation: RAT, LIVER, S-9, AROCLOR 1254 (10%), Method: PREINCUBATION): inactive; negative
mutagenic call (Strain/Indicator: TA97, Metabolic Activation: RAT, LIVER, S-9, AROCLOR 1254 (30%), Method: PREINCUBATION): inactive; negative
mutagenic call [2]: inactive; negative
mutagenic call [3]: inactive; negative
mutagenic call [4]: inactive; negative
mutagenic call [5]: inactive; negative
mutagenic call (Strain/Indicator: TA98, Metabolic Activation: RAT, LIVER, S-9, AROCLOR 1254 (10%), Method: PREINCUBATION): inactive; negative
mutagenic call (Strain/Indicator: TA98, Metabolic Activation: RAT, LIVER, S-9, AROCLOR 1254 (30%), Method: PREINCUBATION): inactive; negative
mutagenic call [6]: inactive; negative
mutagenic call [7]: inactive; negative
mutagenic call [8]: inactive; negative
mutagenic call [9]: inactive; negative
mutagenic call [10]: inactive; negative
mutagenic call (Strain/Indicator: TA100, Metabolic Activation: RAT, LIVER, S-9, AROCLOR 1254 (10%), Method: PREINCUBATION): inactive; negative
mutagenic call (Strain/Indicator: TA100, Metabolic Activation: RAT, LIVER, S-9, AROCLOR 1254 (30%), Method: PREINCUBATION): inactive; negative
mutagenic call [11]: inactive; negative
mutagenic call [12]: inactive; negative
mutagenic call (Strain/Indicator: TA1535, Metabolic Activation: HAMSTER, LIVER, S-9, AROCLOR 1254 (30%), Method: PREINCUBATION): inactive; negative
mutagenic call [13]: inactive; negative
mutagenic call [14]: inactive; negative
mutagenic call [15]: inactive; negative
mutagenic call (Strain/Indicator: TA1535, Metabolic Activation: RAT, LIVER, S-9, AROCLOR 1254 (30%), Method: PREINCUBATION): inactive; negative
mutagenic call [16]: inactive; negative
mutagenic call (Strain/Indicator: TA1537, Metabolic Activation: HAMSTER, LIVER, S-9, AROCLOR 1254 (30%), Method: PREINCUBATION): inactive; negative
mutagenic call (Strain/Indicator: TA1537, Metabolic Activation: NONE, Method: PREINCUBATION): inactive; negative
mutagenic call [17]: inactive; negative
mutagenic call (Strain/Indicator: TA1537, Metabolic Activation: RAT, LIVER, S-9, AROCLOR 1254 (30%), Method: PREINCUBATION): inactive; negative
mutagenic call [18]: inactive; negative
mutagenic call [19]: inactive; negative
mutagenic call [20]: inactive; negative

Cc1ccc(S(=O)(=O)n2ncc(Cl)c(Cl)c2=O)cc1
mutagenic call [5]: inactive; negative
mutagenic call [6]: inactive; negative
mutagenic call [10]: inactive; negative
mutagenic call [11]: inactive; negative
mutagenic call [14]: inactive; negative
mutagenic call [16]: inactive; negative
mutagenic call [17]: inactive; negative
mutagenic call [18]: inactive; negative

Nc1ccc(/C=C/c2ccc(Cl)cc2)cc1
mutagenic call (Strain/Indicator: TA98(1,8-DNP6), Metabolic Activation: NONE, Method: STANDARD PLATE): inactive; negative
mutagenic call (Strain/Indicator: TA98(1,8-DNP6), Metabolic Activation: S-9, Method: STANDARD PLATE): active; positive
mutagenic call [5]: inactive; negative
mutagenic call [6]: active; positive
mutagenic call (Strain/Indicator: TA98, Metabolic Activation: S-9, Method: STANDARD PLATE): active; positive
mutagenic call [10]: inactive; negative
mutagenic call [11]: active; positive
mutagenic call (Strain/Indicator: TA100, Metabolic Activation: S-9, Method: STANDARD PLATE): active; positive

O=Nc1ccc(O)cc1
mutagenic call (Strain/Indicator: TA97, Metabolic Activation: HAMSTER, LIVER, S-9, AROCLOR 1254 (10 OR 30%), Method: PREINCUBATION): inactive; negative
mutagenic call [1]: inactive; negative
mutagenic call (Strain/Indicator: TA97, Metabolic Activation: RAT, LIVER, S-9, AROCLOR 1254 (10 OR 30%), Method: PREINCUBATION): inactive; negative
mutagenic call [2]: inactive; negative
mutagenic call [3]: active; positive
mutagenic call [4]: active; positive
mutagenic call (Strain/Indicator: TA98, Metabolic Activation: RAT, LIVER, S-9, AROCLOR 1254 (10 OR 30%), Method: PREINCUBATION): inactive; negative
mutagenic call [7]: inactive; negative
mutagenic call [8]: active; positive
mutagenic call [9]: inactive; negative
mutagenic call (Strain/Indicator: TA100, Metabolic Activation: RAT, LIVER, S-9, AROCLOR 1254 (10 OR 30%), Method: PREINCUBATION): inactive; negative
mutagenic call [12]: inactive; negative
mutagenic call [13]: inactive; negative
mutagenic call [15]: inactive; negative

CCCCC(CC)COC(=O)c1ccc(C(=O)O)cc1 (stereo not drawn)
mutagenic call [5]: inactive; negative
mutagenic call [6]: inactive; negative
mutagenic call [10]: inactive; negative
mutagenic call [11]: inactive; negative
mutagenic call [14]: inactive; negative
mutagenic call [16]: inactive; negative
mutagenic call [17]: inactive; negative
mutagenic call [18]: inactive; negative
mutagenic call [19]: inactive; negative
mutagenic call [20]: inactive; negative

Cc1ccccc1-c1ccc(N)cc1
mutagenic call [5]: inactive; negative
mutagenic call [6]: active; positive
mutagenic call [10]: inactive; negative
mutagenic call [11]: active; positive

CN(C)CCNC(=O)c1cccc2c(N)c3ccccc3nc12
mutagenic call [17]: active; positive

— PubChem BioAssay AID1259407 (Chemical Carcinogenesis Research Information System (CCRIS), 2018)
